Data from patent EP4603105A1, “PHARMACEUTICAL COMPOSITION CONTAINING CYCLIC COMPOUND HAVING SELECTIVE KRAS INHIBITORY EFFECT AGAINST HRAS AND NRAS” (CHUGAI SEIYAKU KABUSHIKI KAISHA, priority 2022, dated 2024).

Assays:
[1] = system: human lung cancer strain NCI-H441; assay type: cell-based
Method in brief: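 Step one: dispense the test compound in serial DMSO dilutions. Step three: add the reagent and measure […].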

[2] = target: GDP-bound NRAS wild-type protein (Homo sapiens, UniProt P01111); test: Binding to NRAS by surface plasmon resonance (SPR), KD and KD ratio to KRAS; conditions: ratio of KD for GDP-bound NRAS wild-type protein to KD for KRAS
Chain of GDP-bound NRAS wild-type protein (P01111 whole entry): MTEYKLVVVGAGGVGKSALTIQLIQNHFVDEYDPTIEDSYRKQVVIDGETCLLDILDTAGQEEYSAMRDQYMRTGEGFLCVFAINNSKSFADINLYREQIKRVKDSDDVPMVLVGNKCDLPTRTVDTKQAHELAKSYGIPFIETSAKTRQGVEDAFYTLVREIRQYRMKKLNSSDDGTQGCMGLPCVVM
Method in brief: (§1)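 Running buffer contained 10 µM GDP and 10 mM MgCl2 to keep RAS in the GDP state, with 4% DMSO at pH 7.4. Compounds were flowed at 100 µL/min in 75 s steps of rising concentration over captured biotin-Avi RAS at 30°C. Sensorgrams were fitted 1:1 for KD.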

[3] = target: HRAS wild-type protein (Homo sapiens, UniProt P01112); test: Binding to HRAS by surface plasmon resonance (SPR), KD and KD ratio to KRAS; conditions: ratio of KD for HRAS wild-type protein to KD for KRAS
Chain of HRAS wild-type protein (P01112 whole entry): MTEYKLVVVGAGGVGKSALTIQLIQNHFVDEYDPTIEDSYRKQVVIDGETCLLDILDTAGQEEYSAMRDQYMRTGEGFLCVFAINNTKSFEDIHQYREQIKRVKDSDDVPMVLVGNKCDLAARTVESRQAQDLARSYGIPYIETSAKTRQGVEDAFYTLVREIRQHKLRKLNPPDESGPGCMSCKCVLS
Method in brief: as §1

| SMILES | IC50 [1] [nM] | NRAS /KRAS [2] | HRAS /KRAS [3] |
| --- | --- | --- | --- |
| CCO[C@@H]1C[C@H]2C(=O)NC3(CCC3)C(=O)N(C)[C@@H](C3CCCC3)C(=O)N(C)[C@H](C(=O)N3CCOCC3)CC(=O)N(C)[C@@H](CC(C)C)C(=O)N[C@@H]([C@@H](C)CC)C(=O)N(C)CC(=O)N(C)[C@H]3CCCCCN(C3=O)[C@@H](Cc3ccc4sccc4c3)C(=O)N(C)CC(=O)N[C@@H](CCc3cc(F)c(C(F)(F)F)c(F)c3)C(=O)N2C1 [PP0920] | 75.5 | B (a compound having 3 or more and less than 10 is denoted as B) | B (a compound having 3 or more and less than 10 is denoted as B) |
| CCO[C@@H]1C[C@H]2C(=O)NC3(CCC3)C(=O)N(C)[C@@H](C3CCCC3)C(=O)N(C)[C@H](C(=O)N3CCOCC3)CC(=O)N(C)[C@@H](CC(C)C)C(=O)N[C@@H]([C@@H](C)CC)C(=O)N(C)CC(=O)N(C)[C@H]3CCCCCN(C3=O)[C@@H](Cc3ccc4ccsc4c3)C(=O)N(C)CC(=O)N[C@@H](CCc3cc(F)c(C(F)(F)F)c(F)c3)C(=O)N2C1 [PP0921] | 139 | B (a compound having 3 or more and less than 10 is denoted as B) | B (a compound having 3 or more and less than 10 is denoted as B) |
| CCO[C@@H]1C[C@H]2C(=O)NC3(CCC3)C(=O)N(C)[C@@H](C3CCCC3)C(=O)N(C)[C@H](C(=O)N3CCOCC3)CC(=O)N(C)[C@@H](CC(C)C)C(=O)N[C@@H]([C@@H](C)CC)C(=O)N(C)CC(=O)N(C)[C@H]3CCCCCN(C3=O)[C@@H](Cc3ccc(F)c(C)c3)C(=O)N(C)CC(=O)N[C@@H](CCc3cc(F)c(C(F)(F)F)c(F)c3)C(=O)N2C1 [PP0922] | 98.2 | B (a compound having 3 or more and less than 10 is denoted as B) | B (a compound having 3 or more and less than 10 is denoted as B) |
| CCO[C@@H]1C[C@H]2C(=O)NC3(CCC3)C(=O)N(C)[C@@H](C3CCCC3)C(=O)N(C)[C@H](C(=O)N3CCOCC3)CC(=O)N(C)[C@@H](CC(C)C)C(=O)N[C@@H]([C@@H](C)CC)C(=O)N(C)CC(=O)N(C)[C@H]3CCCCCN(C3=O)[C@@H](Cc3ccc(F)cc3OC)C(=O)N(C)CC(=O)N[C@@H](CCc3cc(F)c(C(F)(F)F)c(F)c3)C(=O)N2C1 [PP0924] | 92 | B (a compound having 3 or more and less than 10 is denoted as B) | B (a compound having 3 or more and less than 10 is denoted as B) |
| CCCN1C(=O)CN(C)C(=O)CN(C)C(=O)[C@H]([C@@H](C)CC)NC(=O)[C@@H]2CCCCCCC[C@@H](NC(=O)[C@@H]3C[C@@H](OCC)CN3C(=O)[C@H](CCc3cc(F)c(C(F)(F)F)c(F)c3)NC(=O)CN(C)C(=O)[C@@H]1Cc1ccc(C(F)(F)F)cc1)C(=O)N(C)[C@@H](C1CCCC1)C(=O)N(C)[C@H](C(=O)N(C)C)CC(=O)N2C [PP0925] | 91 | A (a compound having 10 or more and less than 20 is denoted as A) | B (a compound having 3 or more and less than 10 is denoted as B) |
| CCO[C@@H]1C[C@H]2C(=O)NC3(CCC3)C(=O)N(C)[C@@H](C3CCCC3)C(=O)N(C)[C@H](C(=O)N3CCOCC3)CC(=O)N(C)[C@@H](Cc3ccccc3F)C(=O)N[C@@H]([C@@H](C)CC)C(=O)N(C)CC(=O)N(C)[C@H]3CCCCCN(C3=O)[C@@H](Cc3ccc(C(F)(F)F)cc3)C(=O)N(C)CC(=O)N[C@@H](CCc3cc(F)c(C(F)(F)F)c(F)c3)C(=O)N2C1 [PP0926] | 113 | B (a compound having 3 or more and less than 10 is denoted as B) | B (a compound having 3 or more and less than 10 is denoted as B) |
| CCO[C@@H]1C[C@H]2C(=O)NC3(CCC3)C(=O)N(C)[C@@H](C3CCCC3)C(=O)N(C)[C@H](C(=O)N3CCOCC3)CC(=O)N(C)[C@@H](Cc3ccc(F)c(F)c3)C(=O)N[C@@H]([C@@H](C)CC)C(=O)N(C)CC(=O)N(C)[C@H]3CCCCCN(C3=O)[C@@H](Cc3ccc(C(F)(F)F)cc3)C(=O)N(C)CC(=O)N[C@@H](CCc3cc(F)c(C(F)(F)F)c(F)c3)C(=O)N2C1 [PP0928] | 182 | A (a compound having 10 or more and less than 20 is denoted as A) | B (a compound having 3 or more and less than 10 is denoted as B) |
| CCO[C@@H]1C[C@H]2C(=O)NC3(CCC3)C(=O)N(C)[C@@H](C3CCCC3)C(=O)N(C)[C@H](C(=O)N3CCOCC3)CC(=O)N(C)[C@@H](Cc3ccccc3Cl)C(=O)N[C@@H]([C@@H](C)CC)C(=O)N(C)CC(=O)N(C)[C@H]3CCCCCN(C3=O)[C@@H](Cc3ccc(C(F)(F)F)cc3)C(=O)N(C)CC(=O)N[C@@H](CCc3cc(F)c(C(F)(F)F)c(F)c3)C(=O)N2C1 [PP0929] | 317 | A (a compound having 10 or more and less than 20 is denoted as A) | B (a compound having 3 or more and less than 10 is denoted as B) |
| CCO[C@@H]1C[C@H]2C(=O)NC3(CCC3)C(=O)N(C)[C@@H](C3CCCC3)C(=O)N(C)[C@H](C(=O)N3CCOCC3)CC(=O)N(C)[C@@H](Cc3ccccc3C)C(=O)N[C@@H]([C@@H](C)CC)C(=O)N(C)CC(=O)N(C)[C@H]3CCCCCN(C3=O)[C@@H](Cc3ccc(C(F)(F)F)cc3)C(=O)N(C)CC(=O)N[C@@H](CCc3cc(F)c(C(F)(F)F)c(F)c3)C(=O)N2C1 [PP0931] | 181 | A (a compound having 10 or more and less than 20 is denoted as A) | B (a compound having 3 or more and less than 10 is denoted as B) |
| CCO[C@@H]1C[C@H]2C(=O)NC3(CCC3)C(=O)N(C)[C@@H](C3CCCC3)C(=O)N(C)[C@H](C(=O)N3CCOCC3)CC(=O)N(C)[C@@H](Cc3ccc(C)cc3)C(=O)N[C@@H]([C@@H](C)CC)C(=O)N(C)CC(=O)N(C)[C@H]3CCCCCN(C3=O)[C@@H](Cc3ccc(C(F)(F)F)cc3)C(=O)N(C)CC(=O)N[C@@H](CCc3cc(F)c(C(F)(F)F)c(F)c3)C(=O)N2C1 [PP0933] | 150 | A (a compound having 10 or more and less than 20 is denoted as A) | B (a compound having 3 or more and less than 10 is denoted as B) |
| CCO[C@@H]1C[C@H]2C(=O)NC3(CCC3)C(=O)N(C)[C@@H](C3CCCC3)C(=O)N(C)[C@H](C(=O)N(C)C)CC(=O)N(C)[C@@H](Cc3cccc(F)c3)C(=O)N[C@@H]([C@@H](C)CC)C(=O)N(C)CC(=O)N(C)[C@H]3CCCCCN(C3=O)[C@@H](Cc3ccc(C(F)(F)F)cc3)C(=O)N(C)CC(=O)N[C@@H](CCc3cc(F)c(C(F)(F)F)c(F)c3)C(=O)N2C1 [PP0935] | 26.9 | B (a compound having 3 or more and less than 10 is denoted as B) | B (a compound having 3 or more and less than 10 is denoted as B) |
| CCO[C@@H]1C[C@H]2C(=O)NC3(CCC3)C(=O)N(C)[C@@H](C3CCCC3)C(=O)N(C)[C@H](C(=O)N(C)C)CC(=O)N(C)[C@@H](Cc3ccc(F)cc3)C(=O)N[C@@H]([C@@H](C)CC)C(=O)N(C)CC(=O)N(C)[C@H]3CCCCCN(C3=O)[C@@H](Cc3ccc(C(F)(F)F)cc3)C(=O)N(C)CC(=O)N[C@@H](CCc3cc(F)c(C(F)(F)F)c(F)c3)C(=O)N2C1 [PP0936] | 42.4 | B (a compound having 3 or more and less than 10 is denoted as B) | B (a compound having 3 or more and less than 10 is denoted as B) |
| CCO[C@@H]1C[C@H]2C(=O)NC3(CCC3)C(=O)N(C)[C@@H](C3CCCC3)C(=O)N(C)[C@H](C(=O)N(C)C)CC(=O)N(C)[C@@H](Cc3cccc(Cl)c3)C(=O)N[C@@H]([C@@H](C)CC)C(=O)N(C)CC(=O)N(C)[C@H]3CCCCCN(C3=O)[C@@H](Cc3ccc(C(F)(F)F)cc3)C(=O)N(C)CC(=O)N[C@@H](CCc3cc(F)c(C(F)(F)F)c(F)c3)C(=O)N2C1 [PP0939] | 114 | B (a compound having 3 or more and less than 10 is denoted as B) | B (a compound having 3 or more and less than 10 is denoted as B) |
| CCO[C@@H]1C[C@H]2C(=O)NC3(CCC3)C(=O)N(C)[C@@H](C3CCCC3)C(=O)N(C)[C@H](C(=O)N(C)C)CC(=O)N(C)[C@@H](Cc3ccc(Cl)cc3)C(=O)N[C@@H]([C@@H](C)CC)C(=O)N(C)CC(=O)N(C)[C@H]3CCCCCN(C3=O)[C@@H](Cc3ccc(C(F)(F)F)cc3)C(=O)N(C)CC(=O)N[C@@H](CCc3cc(F)c(C(F)(F)F)c(F)c3)C(=O)N2C1 [PP0940] | 110 | B (a compound having 3 or more and less than 10 is denoted as B) | C (A compound having a KD ratio of 0.1 or more and less than 3 is denoted as C) |
| CCO[C@@H]1C[C@H]2C(=O)NC3(CCC3)C(=O)N(C)[C@@H](C3CCCC3)C(=O)N(C)[C@H](C(=O)N(C)C)CC(=O)N(C)[C@@H](Cc3cccc(C)c3)C(=O)N[C@@H]([C@@H](C)CC)C(=O)N(C)CC(=O)N(C)[C@H]3CCCCCN(C3=O)[C@@H](Cc3ccc(C(F)(F)F)cc3)C(=O)N(C)CC(=O)N[C@@H](CCc3cc(F)c(C(F)(F)F)c(F)c3)C(=O)N2C1 [PP0942] | 66.1 | B (a compound having 3 or more and less than 10 is denoted as B) | B (a compound having 3 or more and less than 10 is denoted as B) |
